One test deals with T1, PARP-1 (Homo sapiens, UniProt P09874).
T1 construct: purchased R&D 4677-096-K
The settings on record: within a concentration of between 2 M and 10 mM (so in the source); positive control; cited from earlier work.

In a further test the test system is CD80 in RAW264.7 cells. As to conditions: pre-incubated 2 h, then stimulus 12 h. How it is done:
4. Flow antibodies FITC-labeled anti-CD80, CD86 were added for testing.
Raw264.7: 48-well plate, cells number of […]. Each well was added with 1 mL of culture system. Different concentrations of TJ-M201021 were added, and cells were pre-incubated for 2 h. CPG was then added. A final concentration was 40 ug/mL. Cells were incubated for 12 h at a temperature of 37° C. in an incubator filled with CO2. Flow antibodies FITC-labeled anti-CD80 and CD86 were added for testing.

Test [1] has as its system SH-SY5Y cells. In words: Protection against cobalt chloride-induced hypoxic injury, MTT method and microscope. As to conditions: cobalt chloride 600 μM/L for 24 h, FIG. 4, FIG. 6. Format: cell-based, human. How it is done: Dopaminergic neuroblastoma tumor cells SH-SY5Y from human body were employed as experiment cells. Cobalt chloride having a concentration of 600 μM/L was used to treat SH-SY5Y cells for 24 h. […] It was known from the results that the aminothiazole derivatives have good protection on the cell against hypoxic injuries caused by cobalt chloride. Observed under the microscope, cells after being damaged (FIG. 5) had unclear edges, and the number of the cells was decreased. […] The growth of the cells was good.
(Formazan colour is commonly taken as a measure of viable cells.)

The subject of test [2] is SH-SY5Y cells. In words: Protection against neuronal apoptosis induced by hydrogen peroxide, MTT method. As to conditions: SH-SY5Y cells damaged by H2O2 1000 μM/L for 12 h; concentration of 1 μM. Format: cell-based, human. How it is done:
Dopaminergic neuroblastoma tumor cells SH-SY5Y from human body were employed as experiment cells. H2O2 having a concentration of 1000 μM/L was used to treat SH-SY5Y cells for 12 h. Cell viability was approximately 50%, and a hydrogen peroxide damage model was determined MTT method was used to test the protection of TJ-M201018 (1), TJ-M201005 (2), TJ-M201041 (3), TJ-M201021 (4), and TJ-M201064 (5) on the cells damaged by hydrogen peroxide; results were shown in FIG. 3.

T1 sequence (P09874 whole entry): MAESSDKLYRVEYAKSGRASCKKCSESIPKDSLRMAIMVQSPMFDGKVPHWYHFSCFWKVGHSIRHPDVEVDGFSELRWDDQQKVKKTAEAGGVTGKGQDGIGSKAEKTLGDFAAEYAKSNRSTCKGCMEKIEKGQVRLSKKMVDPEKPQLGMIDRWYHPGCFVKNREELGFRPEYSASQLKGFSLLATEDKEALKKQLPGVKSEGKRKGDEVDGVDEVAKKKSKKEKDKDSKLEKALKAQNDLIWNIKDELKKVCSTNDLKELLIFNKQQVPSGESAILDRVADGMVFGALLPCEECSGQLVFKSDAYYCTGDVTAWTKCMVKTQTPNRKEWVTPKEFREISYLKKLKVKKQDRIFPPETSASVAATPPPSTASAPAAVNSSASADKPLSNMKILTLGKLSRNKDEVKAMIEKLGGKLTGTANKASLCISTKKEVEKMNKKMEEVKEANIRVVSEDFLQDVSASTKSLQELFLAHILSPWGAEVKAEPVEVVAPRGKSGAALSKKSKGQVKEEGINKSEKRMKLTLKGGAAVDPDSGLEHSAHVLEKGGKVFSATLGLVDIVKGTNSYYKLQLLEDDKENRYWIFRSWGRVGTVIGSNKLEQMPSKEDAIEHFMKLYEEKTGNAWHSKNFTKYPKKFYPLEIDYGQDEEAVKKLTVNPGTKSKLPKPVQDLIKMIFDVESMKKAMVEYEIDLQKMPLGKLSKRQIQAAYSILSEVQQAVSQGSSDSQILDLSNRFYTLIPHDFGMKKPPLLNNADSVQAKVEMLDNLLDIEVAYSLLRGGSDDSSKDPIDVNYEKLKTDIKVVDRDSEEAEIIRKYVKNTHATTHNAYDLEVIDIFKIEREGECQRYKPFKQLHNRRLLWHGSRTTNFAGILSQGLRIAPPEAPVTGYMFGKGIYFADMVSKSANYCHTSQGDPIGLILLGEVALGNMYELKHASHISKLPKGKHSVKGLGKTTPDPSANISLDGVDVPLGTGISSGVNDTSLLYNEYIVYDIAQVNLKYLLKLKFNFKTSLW

For the compound `NC(=O)c1cccc(N)c1` [3-AB], on PARP-1, the “inhibition effect on the PARP-1” value was “had an inhibition effect on the PARP-1”.
For `COc1ccc(N2CCN(CCC(=O)Nc3nc(-c4ccccc4)cs3)CC2)cc1` [TJ-M201021], the “increase of the costimulatory molecules CD80 caused by TLR stimuli (LPS, CpG)” value in the test on CD80 in RAW264.7 cells is listed as “inhibited the increase of the costimulatory molecules CD80”. For the same compound, the “protection on the cell against hypoxic injuries caused by cobalt chloride” value in the test with SH-SY5Y cells [1] is “a large number of cells existed and had clear edges”. In the test on SH-SY5Y cells [2], the “cell viability (FIG. 3: increase rate of the cell viability)” value came to 30%.

The values are drawn from patent US9771340B2, “2-aminothiazole derivatives and methods of preparing and using the same” (Huazhong University of Science & Technology, priority 2011, dated 2017).
